According to ChEMBL document CHEMBL6074624, “FDA-approved small molecule kinase inhibitors for cancer treatment (2001-2015): Medical indication, structural optimization, and binding mode Part I” (Bioorg Med Chem, 2024):
≈ marks a conversion by molar mass, not a printed value. One block for each molecule: values may come before it.

Tests used:
[1] = Toxicity in ICR mouse assessed as maximal tolerated dose measured for 7 days; conditions: in vivo, time 7 day
[2] = system: Jurkat; experiment: cells; conditions: Homo sapiens
[3] = system: Ramos; experiment: cells; conditions: Homo sapiens
[4] = Intrinsic clearance in rat; type: ADME
[5] = system: SK-MEL-28; experiment: Cytotoxicity against human SK-MEL-28 cells assessed as reduction in cell viability after 24 hrs by MTT assay; type: functional, cell-based; conditions: SK-MEL-28, 24 h
[6] = system: MDA-MB-231; experiment: Antitumor activity against human MDA-MB-231 cells xenografted in athymic nude mouse assessed as tumor growth inhibition at 20 mg/kg, po administered once daily for 11 days relative to control; type: functional; conditions: MDA-MB-231, 264 h, time 11 day, read-out: TGI
[7] = system: KARPAS-299; experiment: cells; conditions: Homo sapiens, KARPAS-299, 24 h
[8] = Clearance in Sprague-Dawley rat at 5 mg/kg, po; type: ADME, organism-based; conditions: in vivo
[9] = target: Dual specificity mitogen-activated protein kinase kinase 1 (Homo sapiens, UniProt Q02750); experiment: Inhibition of MEK1 (unknown origin) phosphorylation by [gamma-33P]-ATP assay
[10] = Antitumor activity against human MDA-MB-231T cells xenografted in mouse assessed as tumor growth inhibition at 1 mg/kg, po relative to control; type: functional; conditions: read-out: TGI
[11] = Antitumor activity against human MDA-MB-231T cells xenografted in mouse assessed as tumor growth inhibition at 3 mg/kg, po relative to control; type: functional; conditions: read-out: TGI
[12] = Oral bioavailability in human at 5 mg/kg; type: ADME, organism-based; conditions: in vivo
[13] = Antiproliferative activity against human MDA-MB-231T cells assessed as reduction in cell viability; type: functional, cell-based
[14] = system: Caco-2; experiment: Cytotoxicity against human Caco-2 cells assessed as reduction in cell viability; type: functional, cell-based
[15] = Solubility of compound in PBS at pH 7.4; type: physicochemical
[16] = system: A549; experiment: Antitumor activity against human A549 cells harboring KRAS G12S mutant xenografted in athymic nude mouse assessed as tumor growth inhibition at […], po administered once daily for 21 days relative to control; type: functional; conditions: A549, 504 h, dose 2.5 mg/kg, time 21 day, read-out: TGI
[17] = AUC in human; type: ADME
[18] = system: A549; experiment: Antitumor activity against human A549 cells harboring KRAS G12S mutant xenografted in athymic nude mouse assessed as tumor growth inhibition at 0.1 mg/kg, po administered once daily for 21 days relative to control; type: functional; conditions: A549, 504 h, time 21 day, read-out: TGI
[19] = system: A549; experiment: Antitumor activity against human A549 cells harboring KRAS G12S mutant xenografted in athymic nude mouse assessed as tumor growth inhibition at 5 mg/kg, po administered once daily for 21 days relative to control; type: functional; conditions: A549, 504 h, time 21 day, read-out: TGI
[20] = system: A549; experiment: Antitumor activity against human A549 cells harboring KRAS G12S mutant xenografted in athymic nude mouse assessed as tumor growth inhibition at 0.5 mg/kg, po administered once daily for 21 days relative to control; type: functional; conditions: A549, 504 h, time 21 day, read-out: TGI
[21] = system: ACHN; experiment: Antiproliferative activity against human ACHN cells assessed as reduction in cell viability measured after 48 hrs by SRB assay; type: functional, cell-based
[22] = system: HT-29; experiment: Antiproliferative activity against human HT-29 cells assessed as reduction in cell viability after 72 hrs by MTS assay; type: functional, cell-based; conditions: HT-29, 72 h
[23] = Oral bioavailability in human; type: ADME, organism-based; conditions: in vivo
[24] = Permeability of compound in human Caco-2 cells […]; type: ADME, cell-based; conditions: read-out: permeability
[25] = system: KARPAS-299; experiment: Antitumor activity against ALK positive human KARPAS-299 cells xenografted in RNU nude rat assessed as tumor growth inhibition at 6.25 mg/kg, po administered for 2 weeks relative to control; type: functional; conditions: KARPAS-299, 336 h, read-out: TGI
[26] = system: NCI-H2228; experiment: Antitumor activity against ALK positive human NCI-H2228 cells xenografted in RNU nude rat assessed as tumor growth inhibition at 5 mg/kg, po administered for 2 weeks relative to control; type: functional; conditions: NCI-H2228, 336 h, read-out: TGI
[27] = system: KARPAS-299; experiment: Antitumor activity against ALK positive human KARPAS-299 cells xenografted in RNU nude rat assessed as tumor growth inhibition at 25 mg/kg, po administered for 2 weeks relative to control; type: functional; conditions: KARPAS-299, 336 h, read-out: TGI
[28] = system: NCI-H2228; experiment: Antitumor activity against ALK positive human NCI-H2228 cells xenografted in RNU nude rat assessed as tumor growth inhibition at 10 mg/kg, po administered for 2 weeks relative to control; type: functional; conditions: NCI-H2228, 336 h, read-out: TGI
[29] = system: KARPAS-299; experiment: Antitumor activity against ALK positive human KARPAS-299 cells xenografted in RNU nude rat assessed as tumor growth inhibition at 12.5 mg/kg, po administered for 2 weeks relative to control; type: functional; conditions: KARPAS-299, 336 h, read-out: TGI

Dual specificity mitogen-activated protein kinase kinase 1, sequence (Q02750 whole entry): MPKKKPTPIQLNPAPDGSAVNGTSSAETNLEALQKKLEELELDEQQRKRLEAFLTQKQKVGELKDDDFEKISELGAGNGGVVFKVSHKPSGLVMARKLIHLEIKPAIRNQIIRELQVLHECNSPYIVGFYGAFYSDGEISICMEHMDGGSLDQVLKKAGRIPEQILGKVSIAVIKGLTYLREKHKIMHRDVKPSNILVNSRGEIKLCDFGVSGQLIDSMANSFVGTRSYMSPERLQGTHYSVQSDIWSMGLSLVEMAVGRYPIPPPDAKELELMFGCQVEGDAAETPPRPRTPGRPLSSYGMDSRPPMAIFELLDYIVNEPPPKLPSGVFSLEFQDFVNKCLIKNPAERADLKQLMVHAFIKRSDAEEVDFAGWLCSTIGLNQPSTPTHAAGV

clearance [4]: 19 mL/min/kg
SMILES: CC(C)(C)c1nc(-c2cccc(NS(=O)(=O)c3c(F)cccc3F)c2F)c(-c2ccnc(N)n2)s1 [DABRAFENIB]
IC50 [5]: 3 nM

IC50 [9]: 6.6 nM | bioavailability [12]: 77%
SMILES: O=C(c1ccc(F)c(F)c1Nc1ccc(I)cc1F)N1CC(O)([C@@H]2CCCCN2)C1 [COBIMETINIB]
inhibition in vivo at 1 mg/kg [10]: 60% | inhibition in vivo at 3 mg/kg [11]: 93% | IC50 [13]: 0.2 nM

solubility [15]: 5.3 µM (≈ 3.26 µg/mL) | AUC [17]: 88.3 µM·h | IC50 [21]: 9.8 nM | IC50 [22]: 0.57 nM | bioavailability [23]: 30% | Papp [24]: 26 ×10⁻⁶ cm/s
SMILES: CC(=O)Nc1cccc(-n2c(=O)n(C3CC3)c(=O)c3c(Nc4ccc(I)cc4F)n(C)c(=O)c(C)c32)c1 [TRAMETINIB]
inhibition in vivo at […] [16]: 87% | inhibition in vivo at 0.1 mg/kg [18]: 58% | inhibition in vivo at 5 mg/kg [19]: 92% | inhibition in vivo at 0.5 mg/kg [20]: 62%

The remaining lines, values behind:

SMILES: O=C(NOC[C@H](O)CO)c1ccc(F)c(F)c1Nc1ccc(I)cc1F [MIRDAMETINIB]
MTD at 168 h [1]: 25 mg/kg

SMILES: C=CC(=O)N1CCC[C@@H](n2nc(-c3ccc(Oc4ccccc4)cc3)c3c(N)ncnc32)C1 [IBRUTINIB]
IC50 [2]: 470 nM | IC50 [3]: 40 nM

SMILES: CCc1cc2c(cc1N1CCC(N3CCOCC3)CC1)C(C)(C)c1[nH]c3cc(C#N)ccc3c1C2=O [ALECTINIB]
inhibition in vivo at 20 mg/kg [6]: 119% | IC50 [7]: 12.8 nM

SMILES: O=C(c1ccc(F)c(F)c1Nc1ccc(I)cc1F)N1CC(O)C1
CL [8]: 8.324 mL/min/kg

SMILES: O=C(NOCC1CC1)c1ccc(F)c(F)c1Nc1ccc(I)cc1Cl [CI-1040]
IC50 [14]: 35 nM

SMILES: Cc1cc(Nc2ncc(Cl)c(Nc3ccccc3S(=O)(=O)C(C)C)n2)c(OC(C)C)cc1C1CCNCC1 [CERITINIB]
inhibition in vivo at 6.25 mg/kg [25]: 74% | inhibition in vivo at 5 mg/kg [26]: 67% | inhibition in vivo at 25 mg/kg [27]: 33% | inhibition in vivo at 10 mg/kg [28]: 2% | inhibition in vivo at 12.5 mg/kg [29]: 30%
